Earlier results on two molecules are cited in patent publication US9322040B2, “Pseudonocardia sp. and method for preparing deoxynyboquinone by utilizing same” (SOUTH CHINA SEA INSTITUTE OF OCEANOLOGY, CHINESE ACADEMY OF …, priority 2011, dated 2016).

The subject of this data set is cancer cell.

On to `Cc1cc(=O)[nH]c2c1C(=O)c1c(C)cc(=O)n(C)c1C2=O` [Deoxynyboquinone], for which the cytotoxin activity result was “significant cytotoxin activity”. Moreover, the “activity under anoxic conditions” value (anoxic conditions) is recorded as “stronger activity can be still shown under anoxic conditions”.

As for `Cc1cc(=O)n(C)c2c1C(=O)c1c(C)cc(=O)n(C)c1C2=O` [SCH 538415, reference compound], the “activity relative to Deoxynyboquinone” value (compared with the activity of Deoxynyboquinone) was 10 times weaker.
